Test results taken from PubChem BioAssay (NCI).
Values joined by “and” are separate entries in the source; they are usually repeats but may differ in a detail not shown here. Equal entries are not always repeated.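 Exposure lasted 48 hours, with cells grown in 96-well plates and compounds tested at five concentrations. The concentration for 50% growth inhibition is given as GI50. TGI marks complete inhibition of growth.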 Where a SMILES comes first, the peptide text is derived from it. [ ]: non-standard residue; d: D form. The star is where a group is joined. ξ: configuration not given here. 4Abz = Nc1ccc(C(=O)O)cc1; ξL = CC(C)CC(N)C(=O)O; NHOH = ON*

What was measured:
Test in all cases: NCI tumour cell line growth inhibition, 48 h
ACHN renal = tested on: ACHN renal
UO-31 renal = tested on: UO-31 renal
LOX IMVI melanoma = tested on: LOX IMVI melanoma
HT29 colon = tested on: HT29 colon
HCT-116 colon = tested on: HCT-116 colon
MALME-3M melanoma = tested on: MALME-3M melanoma
COLO 205 colon = tested on: COLO 205 colon
PC-3 prostate = tested on: PC-3 prostate
NCI-H226 lung = tested on: NCI-H226 lung
RPMI-8226 leukemia = tested on: RPMI-8226 leukemia

SMILES	GI50 (ACHN renal)	TGI (ACHN renal)	GI50 (UO-31 renal)	TGI (UO-31 renal)	GI50 (LOX IMVI melanoma)	TGI (LOX IMVI melanoma)	GI50 (HT29 colon)	TGI (HT29 colon)	GI50 (HCT-116 colon)	TGI (HCT-116 colon)	GI50 (MALME-3M melanoma)	TGI (MALME-3M melanoma)	GI50 (COLO 205 colon)	TGI (COLO 205 colon)	GI50 (PC-3 prostate)	TGI (PC-3 prostate)	GI50 (NCI-H226 lung)	TGI (NCI-H226 lung)	GI50 (RPMI-8226 leukemia)	TGI (RPMI-8226 leukemia)
N=C(N)c1ccc(-c2ccc(-c3ccco3)o2)cc1	4.24 µM	15.3 µM	3.17 µM	16.3 µM	2.23 µM	5.2 µM	2.78 µM	8.47 µM	3.04 µM	10.3 µM	2.15 µM	4.12 µM	1.78 µM	3.48 µM	4.05 µM	17 µM	14.4 µM	33.1 µM	2.51 µM	7.52 µM
O=C(O)c1cc(/C=C/c2ccc(O)c(O)c2)ccc1O	–	> 100 µM	–	> 100 µM	–	> 100 µM	–	> 100 µM	–	> 100 µM	–	> 100 µM	–	> 100 µM	–	> 100 µM	–	> 100 µM	–	> 100 µM
NC(=O)c1ncn(C2CCC(CP(=O)(O)O)C2)c1N (stereo unspecified)	–	> 100 µM	–	> 100 µM	–	> 100 µM	–	> 100 µM	–	> 100 µM	–	> 100 µM	–	> 100 µM	–	> 100 µM	–	> 100 µM	–	> 100 µM
NC(=O)NC1=NCCC(=O)N1CCc1c[nH]c2ccccc12	–	65.1 µM	–	31.8 µM	–	26.8 µM	–	47.3 µM	–	26.4 µM	–	36.9 µM	–	27.9 µM	–	28.3 µM	–	39.9 µM	–	50.6 µM
COc1ccc(-n2cc(-c3ccc(Cl)cc3)[nH]c2=S)cc1Cl	33.1 µM	> 100 µM	19.1 µM	47.8 µM	94 µM	> 100 µM	74.2 µM	> 100 µM	47.2 µM	> 100 µM	> 100 µM	> 100 µM	> 100 µM	> 100 µM	30.7 µM	> 100 µM	23.7 µM	65.6 µM	55.3 µM	> 100 µM
O=C(O)/C=C/C(=O)Nc1cccc2c1-c1ccccc1C2=O	–	> 100 µM	–	> 100 µM	–	> 100 µM	–	> 91.9 µM	–	> 100 µM	–	> 100 µM	–	36.1 µM	–	> 88.9 µM	–	> 100 µM	–	62.6 µM
c1ccc2c(c1)N=c1ccccc1=P21c2ccccc2Nc2ccccc21	–	10.9 µM	–	27 µM	–	4.96 µM	–	10.1 µM	–	1.76 µM	–	0.868 µM	–	0.366 µM	–	10.1 µM	–	3.65 µM	–	0.616 µM
COc1cccc(-n2cnc3c(N/N=C/c4ccncc4)ncnc32)c1	9.06 µM	> 25 µM	8.26 µM	> 25 µM	12.8 µM	> 25 µM	8.07 µM	> 25 µM	15.1 µM	> 25 µM	10.2 µM	> 25 µM	11.4 µM	> 25 µM	> 25 µM	> 25 µM	> 23.9 µM	> 25 µM	> 25 µM	> 25 µM
CC(C)=CCNc1ncnc2c1ncn2C1OC(COP(=O)(O)O)C(O)C1O (stereo unspecified)	3.08 µM	> 100 µM	4.1 µM	> 52 µM	0.581 µM	2.55 µM	3.74 µM	42.5 µM	2.07 µM	25.5 µM	73.8 µM	> 100 µM	4.59 µM	> 58.8 µM	2 µM	8.22 µM	4.7 µM	33.9 µM	42.8 µM	> 100 µM
CC(C)CC(NC(=O)[C@@H]1CCCN1C(=O)CNC(=O)c1ccc(N)cc1)C(=O)N[C@H](C)C(=O)NO (stereo partly specified) (H-[4Abz]GP[ξL][dA]-{NHOH})	> 100 µM	> 100 µM	> 100 µM	> 100 µM	> 100 µM	> 100 µM	> 100 µM	> 100 µM	> 100 µM	> 100 µM	> 100 µM	> 100 µM	> 100 µM	> 100 µM	> 100 µM	> 100 µM	> 100 µM	> 100 µM	–	–
CN1CCN(c2nc(NCCNc3ccnc4cc(Cl)ccc34)c3ccccc3n2)CC1	2.85 µM	8.27 µM	1.55 µM	3.53 µM	1.63 µM	3.34 µM	0.699 µM	4.18 µM	0.448 µM	7.62 µM	2 µM	3.76 µM	0.974 µM	2.33 µM	2.07 µM	14.3 µM	10.6 µM	28.7 µM	1.71 µM	4.26 µM
CCCCCCCC(=O)SCC/C=C/[C@@H]1CC(=O)NCc2cccc(n2)CN(Cc2ccc(Cl)cc2)CC(=O)N[C@@H](C(C)C)C(=O)O1	6.44 µM	49.8 µM	6.27 µM	48.9 µM	5.33 µM	19.6 µM	4.3 µM	> 100 µM	4.23 µM	15.6 µM	3.12 µM	> 100 µM	17.6 µM	42.9 µM	15.9 µM	> 100 µM	22 µM	> 100 µM	46.4 µM	> 100 µM
CCCCCc1c(C)[nH]c(/C=C2\N=C(c3ccc[nH]3)C=C2Oc2ccc(OC)cc2)c1C	0.18 µM and 0.0482 µM	–	0.151 µM and 0.0712 µM	0.313 µM and 0.232 µM	0.0406 µM and 0.0197 µM	0.289 µM and 0.0534 µM	0.068 µM and 0.0214 µM	1.94 µM and 1.26 µM	0.0373 µM and 0.0269 µM	1.13 µM and 0.127 µM	0.262 µM and 0.0744 µM	1.34 µM and 0.261 µM	0.125 µM and 0.028 µM	0.502 µM and 0.19 µM	0.106 µM and 0.0275 µM	1.03 µM	0.118 µM and 0.139 µM	–	0.0896 µM and 0.0313 µM	1.13 µM and 0.332 µM
COC1=C(NC(C)=O)C(=O)c2nc3n(c2C1=O)CCC3	–	40.7 µM	–	47.1 µM	–	31.8 µM	–	66.2 µM	–	29.4 µM	–	34.8 µM	–	38.6 µM	–	> 100 µM	–	49.4 µM	–	> 79.2 µM
N#CC1=C(N)Oc2c(sc3c(F)cccc23)C1c1ccc(Cl)cc1 (stereo unspecified)	4.62 µM	19.3 µM	2.49 µM	11.5 µM	3.06 µM	11.8 µM	3.17 µM	11.5 µM	3.7 µM	13.9 µM	6.85 µM	26.3 µM	2.31 µM	6.15 µM	2.72 µM	12.9 µM	12.7 µM	34.8 µM	2.91 µM	12.8 µM
